Drawing on the NIST ThermoML archive (doi:10.1021/je700316s), this text covers mass density and Normal boiling temperature for four compounds.

Numbers after ± are expanded uncertainties.

The conditions of this series: Liquid; for mass density: 298.15 K, 101.33 kPa, Pycnometric method.
[1] abbreviates: Ebulliometric method (Recirculating still).

Take `CCCO` [propan-1-ol]: the mass density is 799.6 ± 0.7 kg/m3. In addition, under setting [1], the Normal boiling temperature worked out at 97.06 ± 0.2 °C.

Take `CC(C)O` [propan-2-ol]: the mass density amounted to 780.8 ± 0.7 kg/m3. In addition, the Normal boiling temperature under setting [1] worked out at 82.2 ± 0.2 °C.

With `CCO` [ethanol], the mass density came to 785.2 ± 0.7 kg/m3 and the Normal boiling temperature came out at 78.29 ± 0.2 °C.

Regarding `CCCCO` [butan-1-ol], the mass density was 805.8 ± 0.7 kg/m3. Further, the Normal boiling temperature under setting [1] was determined as 117.70 ± 0.2 °C.
